Test [1] deals with 5HT2 receptors. Particulars: cited from earlier work.
In test [2] the test system is vascular alpha adrenergic receptors. Conditions: in words; Cohen I; cited from earlier work.
Test [3] concerns dopaminergic receptors. Particulars: in words; Cohen I; cited from earlier work.
The test system of test [4] is histaminergic receptors. Particulars: in words; Cohen I; cited from earlier work.
Test [5] relates to 5HT2 receptors. Conditions: in words; cited from earlier work.
Test [6] concerns the target T1, 5HT2 receptors (Rattus norvegicus, UniProt P14842).
T1 construct: external jugular veins and thoracic aortas dissected free of connective tissue; from tissue; host or cells: external jugular vein of male Wistar rats
The experiment in a line: Apparent antagonist dissociation constant (-log KB) versus serotonin-induced contraction of isolated rat jugular vein. Also noted: species or system male Wistar rats. Conditions: antagonist incubated one hour, 37° C., maleate salt, read-out: 5HT2 -Log Kb ± S.E. (converted). Here is the method: An initial optimum resting force of 1 and 4 g was applied to the jugular vein and aorta, respectively. […] Exp. Ther., 205, 400 (1978). Alpha receptor antagonist activity was evaluated in the aorta.

In test [7] the test system is blood pressure. Conditions: in humans; ketanserin; cited from earlier work.

Structures can show the parent of a compound that is named as a salt.

T1 sequence (P14842 whole entry): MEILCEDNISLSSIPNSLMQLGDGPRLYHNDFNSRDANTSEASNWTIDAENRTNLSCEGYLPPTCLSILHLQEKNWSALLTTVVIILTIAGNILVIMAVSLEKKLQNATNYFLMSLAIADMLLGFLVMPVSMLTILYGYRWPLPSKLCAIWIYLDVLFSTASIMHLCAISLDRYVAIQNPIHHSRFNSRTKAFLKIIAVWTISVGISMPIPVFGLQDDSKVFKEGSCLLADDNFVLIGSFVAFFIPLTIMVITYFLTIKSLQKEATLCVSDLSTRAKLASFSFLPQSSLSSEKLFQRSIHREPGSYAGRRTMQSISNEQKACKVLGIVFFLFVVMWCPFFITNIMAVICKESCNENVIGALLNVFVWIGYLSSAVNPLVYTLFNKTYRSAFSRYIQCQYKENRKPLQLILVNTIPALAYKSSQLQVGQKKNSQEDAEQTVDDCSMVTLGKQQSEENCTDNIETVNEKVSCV

For the compound `CC(O)C(C)OC(=O)[C@@H]1C[C@@H]2c3cccc4c3c(cn4C(C)C)C[C@H]2N(C)C1` (stereo partly drawn) [LY53857, 1-isopropyl-6-methyl-8β-(1-methyl-2-hydroxy)propoxycarbonyl-5R-ergoline], in test [1] (Cohen et al. J.P.E.T., 227, 327 (1983), read-out: Kdissoc. (5HT2 receptors)), the Kd was approximately 0.1 nM. Also, the “antagonism of vascular contraction to serotonin” value in test [1] (effect mediated by 5HT2 receptors, Cohen I) was “potent antagonist of vascular contraction to serotonin”. In addition, the “affinity for vascular alpha adrenergic receptors” value in test [2] is listed as “minimal affinity”. The “affinity for dopaminergic receptors” value in test [3] was “minimal affinity”. Also, the “affinity for histaminergic receptors” value in test [4] is reported as “minimal affinity”. Besides, the “peripheral serotonin antagonist activity, ranking among Garbrecht compounds” value in test [5] was “most active peripheral serotonin antagonist”.
Consider `CC(=O)[C@@H](C)OC(=O)[C@@H]1C[C@@H]2c3cccc4c3c(cn4C(C)C)C[C@H]2N(C)C1` [RCH(CH3)COCH3, R-1-methyl-2-oxopropyl 1-isopropyl-9,10-dihydrolysergate maleate], for which the Kb (as a rule, the affinity of an antagonist, worked out from how it opposes an agonist) in test [6] is 0.355 nM.
In the case of `CC(=O)[C@H](C)OC(=O)[C@@H]1C[C@@H]2c3cccc4c3c(cn4C(C)C)C[C@H]2N(C)C1` [SCH(CH3)COCH3, S-1-methyl-2-oxopropyl 1-isopropyl-9,10-dihydrolysergate], the Kb in test [6] is 0.269 nM.
For `O=C(c1ccc(F)cc1)C1CCN(CCn2c(=O)[nH]c3ccccc3c2=O)CC1` [ketanserin], the lower blood pressure entry in test [7] is reported as “lower blood pressure in humans”.

These data come from patent US4820713A, “Ketoalkanol esters of dihydrolysergic acid useful as 5HT receptor antagonists” (Eli Lilly and Company, priority 1988, dated 1989).
